Results on seven compounds are retold here after paper PMC7075649 (Journal of Medicinal Chemistry, 2019).

“Also recorded” adds a separate entry of the source. Some results are limits rather than exact numbers.

Series [1] relates to ZIKV. In words: microbe, parasite or virus in culture. Type of series: cell-based. As to conditions: Zika virus, read-out: ZIKV EC50.
Series [2] concerns CHIKV. The format is cell-based, chikungunya virus.
The subject of series [3] is Vero cells. The settings on record: African green monkey.
The test system of series [4] is +RNA viruses. The format is cell-based.
The subject of series [5] is AK^+ and AK^– cells. As to conditions: cited from earlier work.
For series [6], the target named is recombinant human SAH hydrolase (Homo sapiens, UniProt P23526). The format is biochemical.
Sequence of recombinant human SAH hydrolase (P23526 whole entry): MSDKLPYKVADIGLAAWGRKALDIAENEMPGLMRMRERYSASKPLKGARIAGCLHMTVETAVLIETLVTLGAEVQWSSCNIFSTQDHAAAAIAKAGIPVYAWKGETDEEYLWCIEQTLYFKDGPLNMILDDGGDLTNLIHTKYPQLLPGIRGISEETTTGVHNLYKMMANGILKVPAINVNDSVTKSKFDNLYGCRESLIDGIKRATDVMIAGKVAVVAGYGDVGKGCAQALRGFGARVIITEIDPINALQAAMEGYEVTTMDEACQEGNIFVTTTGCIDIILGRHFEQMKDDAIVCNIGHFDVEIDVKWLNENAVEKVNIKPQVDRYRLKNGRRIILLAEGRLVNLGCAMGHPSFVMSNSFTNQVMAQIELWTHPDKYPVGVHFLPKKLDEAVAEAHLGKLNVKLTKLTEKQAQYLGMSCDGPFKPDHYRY

With `O=c1ccn([C@H]2[C@H](O)[C@H](O)[C@@H](CO)[C@H]2F)c(=O)[nH]1` [Compound 2f, 1-((1S,2R,3R,4R,5S)-2-Fluoro-4,5-dihydroxy-3-(hydroxymethyl)cyclopentyl)pyrimidine-2,4(1H,3H)-dione], the concentration for a half-maximal effect (EC50) (usually the midpoint of the concentration-response curve) in series [1] was over 100 µM.

Take `Nc1ncnc2c1ncn2[C@H]1[C@H](O)[C@H](O)[C@@H](CO)C1(F)F` [Compound 2c, (1R,2S,3S,5R)-3-(6-Amino-9H-purin-9-yl)-4,4-difluoro-5-(hydroxymethyl)cyclopentane-1,2-diol]: in series [2], the “reduction of infectious CHIKV titers” value was “more than 2 log”. Also, the “reduction in cytotoxicity versus 2a” value in series [3] is given as over 5 fold. In the case of `CC(C)OC(=O)[C@H](C)N[P@](=O)(OC[C@@H]1[C@@H](O)[C@@H](O)[C@H](n2cnc3c(N)ncnc32)C1(F)F)Oc1ccccc1` [Compound 3a, Iso-propyl ((S)-(((1R,3S,4S,5R)-3-(6-Amino-9H-purin-9-yl)-2,2-difluoro-4,5-dihydroxycyclopentyl)methoxy)(phenoxy)phosphoryl)-L-alaninate], the “antiviral activity against +RNA viruses (in words)” value (from here on “antiviral activity”) in series [4] is reported as “potent broad-spectrum antiviral activity; also recorded: exhibited significant broad-spectrum antiviral activities”. For `Nc1ncnc2c1ncn2[C@@H]1C[C@H](CO)[C@@H](O)[C@H]1O` [Compound 1, (−)-Aristeromycin], the “toxicity in AK^+ and AK^– cells” value in series [5] is on record as “toxic at low concentrations”. Turning to `O=c1ccn([C@H]2[C@H](O)[C@H](O)[C@@H](CO)[C@@H]2F)c(=O)[nH]1` [Compound 2g, 1-((1S,2S,3R,4R,5S)-2-Fluoro-4,5-dihydroxy-3-(hydroxymethyl)cyclopentyl)pyrimidine-2,4(1H,3H)-dione], the EC50 in series [1] was over 100 µM.

Turning to `CNc1ncnc2c1ncn2[C@H]1[C@H](O)[C@H](O)[C@@H](CO)[C@H]1F` [Compound 2d, (1S,2R,3R,4R,5S)-4-Fluoro-3-(hydroxymethyl)-5-(6-(methylamino)-9H-purin-9-yl)cyclopentane-1,2-diol], the “SAH hydrolase inhibitory activity, fold decrease versus 2a” value in series [6] was 11.9 fold. Also, the “antiviral activity” value in series [4] was “did not show significant antiviral activities”. As for `CNc1ncnc2c1ncn2[C@H]1[C@H](O)[C@H](O)[C@@H](CO)C1(F)F` [Compound 2e, (1S,2R,3R,5S)-4,4-Difluoro-3-(hydroxymethyl)-5-(6-(methylamino)-9H-purin-9-yl)cyclopentane-1,2-diol], the “antiviral activity” value in series [4] is listed as “did not show significant antiviral activities”.
